Test results published in US20240287071A1, “CLASS OF IMIDAZOLIDINOPYRIMIDONE COMPOUNDS AND USE THEREOF IN TREATMENT OF HSCLPP-MEDIATED DISEASES” (SICHUAN UNIVERSITY, priority 2021, published 2024).

Molecular target: HsClpP (Homo sapiens, UniProt Q16740)
Experiment: HsClpP enzyme hydrolysis of short peptide substrate AC-WLA-AMC
Settings: promoting hydrolysis of short peptide substrate by HsClpP, relative to blank control
Experimental: This study evaluated the regulatory activity of the compounds on HsClpP by examining the hydrolysis effects of HsClpP protein on the AC-WLA-AMC substrate . […] The small molecules and the HsClpP protein solution were added to a flat-bottomed black 96-well plate, with three replicate wells for each group. […] DMSO was used as a negative control instead of small molecules. The multiple of readings at different concentrations against the readings of DMSO group was recorded as an index for evaluation of hydrolysis activity. . . . GraphPad Prism was used to plot the obtained multiple values and calculate the EC50 values.

Chain of HsClpP (Q16740 57-277): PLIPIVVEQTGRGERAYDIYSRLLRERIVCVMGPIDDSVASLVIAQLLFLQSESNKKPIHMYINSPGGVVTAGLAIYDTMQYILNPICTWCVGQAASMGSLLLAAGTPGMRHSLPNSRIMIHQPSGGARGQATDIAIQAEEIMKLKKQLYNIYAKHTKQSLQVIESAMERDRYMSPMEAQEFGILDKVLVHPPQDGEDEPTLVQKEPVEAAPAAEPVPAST

Row | Regulatory efficacy 10 μM | SMILES | Regulatory efficacy 1 μM
1 | + + | CC(C)CCN1CCn2c1nc(=O)c1c2CCN(Cc2ccccc2)C1 [Compound 4, 7-benzyl-3-isopentyl-2,3,6,7,8,9-hexahydroimidazo[1,2-a]pyrido[3,4-e]pyrimidin-5(1H)-one] | + +
2 | + + | O=c1nc2n(c3c1CN(Cc1ccccc1)CC3)CCN2c1ccccc1 [Compound 9, 7-benzyl-3-phenyl-2,3,6,7,8,9-hexahydroimidazo[1,2-a]pyrido[3,4-e]pyrimidin-5(1H)-one] | + (+ indicating that the increased efficacy is less than 50% of the blank control group)
3 | + + | O=c1nc2n(c3c1CN(Cc1ccccc1)CC3)CCN2CCc1ccccc1 [Compound 10, 7-benzyl-3-(phenylethyl)-2,3,6,7,8,9-hexahydroimidazo[1,2-a]pyrido[3,4-e]pyrimidin-5(1H)-one] | + +
4 | + + | O=c1nc2n(c3c1CN(Cc1ccccc1)CC3)CCN2Cc1cccnc1 [Compound 23, 7-benzyl-3-(3-pyridinylmethyl)-2,3,6,7,8,9-hexahydroimidazo[1,2-a]pyrido[3,4-e]pyrimidin-5(1H)-one] | + (+ indicating that the increased efficacy is less than 50% of the blank control group)
5 | + + | O=c1nc2n(c3c1CN(Cc1ccccc1)CC3)CCN2Cc1ccncc1 [Compound 24, 7-benzyl-3-(4-pyridinylmethyl)-2,3,6,7,8,9-hexahydroimidazo[1,2-a]pyrido[3,4-e]pyrimidin-5(1H)-one] | + (+ indicating that the increased efficacy is less than 50% of the blank control group)
6 | + + | O=c1nc2n(c3c1CN(Cc1ccccc1)CC3)CCN2Cc1ccco1 [Compound 25, 7-benzyl-3-(2-furfuryl)-2,3,6,7,8,9-hexahydroimidazo[1,2-a]pyrido[3,4-e]pyrimidin-5(1H)-one] | + (+ indicating that the increased efficacy is less than 50% of the blank control group)

Further lines, the compound ahead of its results:

Row | SMILES | Regulatory efficacy 10 μM | Regulatory efficacy 1 μM
7 | CCN1CCn2c1nc(=O)c1c2CCN(Cc2ccccc2)C1 [Compound 3, 7-benzyl-3-ethyl-2,3,6,7,8,9-hexahydroimidazo[1,2-a]pyrido[3,4-e]pyrimidin-5(1H)-one] | + (+ indicating that the increased efficacy is less than 50% of the blank control group) | + (+ indicating that the increased efficacy is less than 50% of the blank control group)
8 | Cc1ccccc1CN1CCn2c1nc(=O)c1c2CCN(C(=O)OC(C)(C)C)C1 [Compound 27, 7-tert-butoxycarbonyl-3-(2-methylbenzyl)-2,3,6,7,8,9-hexahydroimidazo[1,2-a]pyrido[3,4-e]pyrimid in-5(1H)-one] | + + | + +
9 | Cc1ccccc1CN1CCn2c1nc(=O)c1c2CCN(CC(C)C)C1 [Compound 29, 7-isobutyl-3-(2-methylbenzyl)-2,3,6,7,8,9-hexahydroimidazo[1,2-a]pyrido[3,4-e]pyrimidin-5(1H)-one] | + (+ indicating that the increased efficacy is less than 50% of the blank control group) | + (+ indicating that the increased efficacy is less than 50% of the blank control group)
10 | Cc1ccccc1CN1CCn2c1nc(=O)c1c2CCN(CC2CC2)C1 [Compound 30] | + (+ indicating that the increased efficacy is less than 50% of the blank control group) | + (+ indicating that the increased efficacy is less than 50% of the blank control group)
11 | Cc1ccccc1CN1CCn2c1nc(=O)c1c2CCN(CC2CCCCC2)C1 [Compound 31, 7-cyclohexylmethyl-3-(2-methylbenzyl)-2,3,6,7,8,9-hexahydroimidazo[1,2-a]pyrido[3,4-e]pyrimidin-5(1H)-one] | + + | + (+ indicating that the increased efficacy is less than 50% of the blank control group)
